Source: patent US20220265612A1, “CARDIAC SARCOMERE INHIBITOR ORAL FORMULATIONS” (Cytokinetics, Inc., priority 2019, published 2022)

Legend:
[1] = tested on: rat cardiac contractility; assay: Echocardiography assessment of cardiac contractility, oral gavage; format: in vivo, Sprague Dawley rats; conditions: oral dosing, estimated value
Description: Assessment of in vivo cardiac function by echocardiography was performed in male Sprague Dawley rats under isoflurane (1-3%) anesthesia. […] In vivo fractional shortening was determined by M-mode image analysis with the following calculation: ((End diastolic diameter−end systolic diameter)/end diastolic diameter×100). […] During infusion, M-mode images were taken at 5 minute intervals. The infusion stopped when fractional shortening reached up to a 60% reduction from baseline. […] Data was reported as an estimated IC50 value, which is the concentration at which fractional shortening is 50% of the pre-dose baseline contractility.
For oral dosing studies, three pre-dose baseline M-Mode images were taken at 1 minute intervals prior to compound administration. […] Rats were lightly anesthetized for M-Mode echocardiography measurements at select time points over a 24 hour period. Different dose levels were evaluated for (R)-N-(5-(5-ethyl-1,2,4-oxadiazol-3-yl)-2,3-dihydro-1H-inden-1-yl)-1-methyl-1H-pyrazole-4-carboxamide. The compound effect on cardiac fractional shortening at the highest dose evaluated is presented in Table D as a percent reduction of baseline fractional shortening (=100%).

[2] = biological target: T1, bovine cardiac myofibrils (Bos taurus, UniProt Q9BE39); assay: Skinned bovine cardiac myofibril ATPase assay (PK/LDH-coupled); format: biochemical; conditions: myofibril ATPase at Ca2+ giving 75% activation (pCa75)
T1 construct: full-length cardiac myosin in the context of the native sarcomere; from tissue; host or cells: bovine cardiac left ventricular tissue, detergent-skinned (Triton X-100) myofibrils
T1 sequence (Q9BE39 whole entry): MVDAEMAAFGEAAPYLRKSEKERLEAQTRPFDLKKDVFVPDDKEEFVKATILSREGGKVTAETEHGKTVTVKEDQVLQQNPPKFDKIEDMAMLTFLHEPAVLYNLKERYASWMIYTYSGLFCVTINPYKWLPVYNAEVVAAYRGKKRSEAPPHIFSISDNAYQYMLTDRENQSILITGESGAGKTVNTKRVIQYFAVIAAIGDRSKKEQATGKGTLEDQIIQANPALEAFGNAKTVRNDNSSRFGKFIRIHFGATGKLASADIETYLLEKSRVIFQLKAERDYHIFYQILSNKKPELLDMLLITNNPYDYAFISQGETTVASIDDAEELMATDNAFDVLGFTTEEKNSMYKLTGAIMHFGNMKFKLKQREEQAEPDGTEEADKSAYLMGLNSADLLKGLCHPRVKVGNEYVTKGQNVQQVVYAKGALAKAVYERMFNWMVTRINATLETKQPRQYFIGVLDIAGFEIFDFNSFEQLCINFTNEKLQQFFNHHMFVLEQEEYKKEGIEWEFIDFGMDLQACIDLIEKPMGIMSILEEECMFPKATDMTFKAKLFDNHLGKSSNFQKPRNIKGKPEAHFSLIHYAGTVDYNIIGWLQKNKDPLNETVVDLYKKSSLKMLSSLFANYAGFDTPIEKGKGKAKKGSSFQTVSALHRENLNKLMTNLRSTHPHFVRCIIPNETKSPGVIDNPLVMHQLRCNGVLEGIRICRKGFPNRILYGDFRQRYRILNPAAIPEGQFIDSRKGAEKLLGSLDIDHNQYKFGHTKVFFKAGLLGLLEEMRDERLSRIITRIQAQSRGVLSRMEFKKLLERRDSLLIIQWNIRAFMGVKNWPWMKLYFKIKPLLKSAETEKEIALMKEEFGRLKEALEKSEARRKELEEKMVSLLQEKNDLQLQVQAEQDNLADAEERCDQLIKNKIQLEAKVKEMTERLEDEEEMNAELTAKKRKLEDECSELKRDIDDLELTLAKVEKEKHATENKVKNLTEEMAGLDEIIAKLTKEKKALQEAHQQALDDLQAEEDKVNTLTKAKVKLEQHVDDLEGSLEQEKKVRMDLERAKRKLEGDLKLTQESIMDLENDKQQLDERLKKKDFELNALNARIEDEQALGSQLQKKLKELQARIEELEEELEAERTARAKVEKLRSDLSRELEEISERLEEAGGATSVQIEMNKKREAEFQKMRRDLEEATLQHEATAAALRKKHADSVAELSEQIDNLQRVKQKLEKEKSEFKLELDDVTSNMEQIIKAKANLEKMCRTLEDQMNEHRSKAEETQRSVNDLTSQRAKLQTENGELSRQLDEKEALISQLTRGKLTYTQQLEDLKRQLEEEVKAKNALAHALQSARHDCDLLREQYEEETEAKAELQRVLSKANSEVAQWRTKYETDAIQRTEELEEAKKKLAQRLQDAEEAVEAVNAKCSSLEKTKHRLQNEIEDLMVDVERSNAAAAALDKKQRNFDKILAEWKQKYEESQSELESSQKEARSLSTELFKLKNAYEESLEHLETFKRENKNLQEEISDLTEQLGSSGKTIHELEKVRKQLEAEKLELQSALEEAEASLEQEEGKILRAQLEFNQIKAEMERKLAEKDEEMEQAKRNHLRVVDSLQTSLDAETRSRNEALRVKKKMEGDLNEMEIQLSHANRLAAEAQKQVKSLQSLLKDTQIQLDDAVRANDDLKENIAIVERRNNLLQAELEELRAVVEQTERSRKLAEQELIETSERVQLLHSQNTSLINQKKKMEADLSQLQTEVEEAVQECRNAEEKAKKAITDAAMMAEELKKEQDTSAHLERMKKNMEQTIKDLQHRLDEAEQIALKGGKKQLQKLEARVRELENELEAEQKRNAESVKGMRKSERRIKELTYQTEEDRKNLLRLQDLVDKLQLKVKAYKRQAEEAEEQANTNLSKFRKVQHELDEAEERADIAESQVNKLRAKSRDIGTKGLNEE
T1 sequence (P85100 whole entry partner): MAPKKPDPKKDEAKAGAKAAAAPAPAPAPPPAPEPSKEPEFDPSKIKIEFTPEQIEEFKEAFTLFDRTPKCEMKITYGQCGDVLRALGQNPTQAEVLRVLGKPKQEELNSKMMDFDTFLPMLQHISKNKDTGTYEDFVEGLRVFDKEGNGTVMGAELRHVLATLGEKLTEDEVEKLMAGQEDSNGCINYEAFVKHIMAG
T1 sequence (Q3SZE5 whole entry partner): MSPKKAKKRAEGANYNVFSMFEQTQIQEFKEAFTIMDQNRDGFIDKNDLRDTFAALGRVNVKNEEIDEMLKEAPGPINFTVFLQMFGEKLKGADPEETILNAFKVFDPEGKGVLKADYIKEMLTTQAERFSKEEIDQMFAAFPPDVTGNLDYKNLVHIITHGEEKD
Description: Bovine cardiac myofibrils were obtained by homogenizing bovine cardiac left ventricular tissue in the presence of a detergent such as triton X-100. Such treatment removes membranes and a majority of the soluble cytoplasmic proteins but leaves intact the cardiac sarcomeric acto-myosin apparatus. Myofibril preparations retain the ability to hydrolyze ATP in a Ca^2+ regulated manner. […] This assay regenerates myosin-produced ADP into ATP by oxidizing NADH, producing an absorbance change at 340 nm.

CDMF75 IC15 [2]: 400 nM
Compound: CCc1nc(-c2ccc3c(c2)CC[C@H]3NC(=O)c2cnn(C)c2)no1 [(R)-N-(5-(5-ethyl-1,2,4-oxadiazol-3-yl)-2,3-dihydro-1H-inden-1-yl)-1-methyl-1H-pyrazole-4-carboxamide]
IC10, plasma concentration for fractional shortening [1]: 800 nM
